Legend:
muIDO2 = molecular target: T1, muIDO2 (Mus musculus, UniProt Q8R0V5); experiment: kynurenine assay in 293-T-REx cells expressing muIDO2; assay type: cell-based
T1 sequence (Q8R0V5 1-405): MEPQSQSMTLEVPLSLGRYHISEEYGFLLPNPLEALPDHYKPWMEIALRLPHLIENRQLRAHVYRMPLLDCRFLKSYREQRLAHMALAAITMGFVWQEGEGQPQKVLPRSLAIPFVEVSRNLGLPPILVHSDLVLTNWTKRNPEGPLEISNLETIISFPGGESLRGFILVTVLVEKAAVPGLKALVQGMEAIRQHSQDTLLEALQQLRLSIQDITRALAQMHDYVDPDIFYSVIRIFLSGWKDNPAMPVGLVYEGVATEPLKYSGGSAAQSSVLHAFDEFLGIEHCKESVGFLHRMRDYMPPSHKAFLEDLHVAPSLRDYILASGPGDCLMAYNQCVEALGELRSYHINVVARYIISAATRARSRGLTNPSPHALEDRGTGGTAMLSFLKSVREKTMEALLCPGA

muIDO1 = muIDO1 (Mus musculus, UniProt P28776); experiment: kynurenine assay in 293-T-REx cells expressing muIDO1; assay type: cell-based
Sequence of muIDO1 (P28776 whole entry): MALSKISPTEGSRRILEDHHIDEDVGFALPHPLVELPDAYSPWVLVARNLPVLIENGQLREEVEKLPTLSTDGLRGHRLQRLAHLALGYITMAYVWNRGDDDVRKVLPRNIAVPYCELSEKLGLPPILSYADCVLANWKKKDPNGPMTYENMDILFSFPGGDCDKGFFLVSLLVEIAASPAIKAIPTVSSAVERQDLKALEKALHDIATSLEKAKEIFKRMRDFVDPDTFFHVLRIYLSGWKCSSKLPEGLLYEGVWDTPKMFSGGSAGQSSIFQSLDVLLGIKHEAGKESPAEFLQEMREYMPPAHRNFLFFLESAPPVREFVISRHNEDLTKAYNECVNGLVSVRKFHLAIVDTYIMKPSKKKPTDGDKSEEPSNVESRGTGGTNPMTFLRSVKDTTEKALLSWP

C=CC1=C(C)C2=Cc3c(C=C)c(C)c4[n]3[Zn][n]3c(c(C)c(CCC(=O)O)c3=CC3=NC(=C4)C(C)=C3CCC(=O)O)=CC1=N2 [ZnPP]
IC50 (muIDO2): 7.1 µM | IC50 (muIDO1): 3.3 µM

Source: publication PMC2885048 (Molecular cancer therapeutics, 2010)
